These results are taken from patent US12281299B2, “Control of nitrogen fixation in rhizobia that associate with cereals” (Massachusetts Institute of Technology, priority 2019, dated 2025).

The subject of one data set is A. caulinodans ORS571.
Experiment: not given
The settings on record: sensor controlling NifA(L94Q/D95Q)/RpoN expression in A. caulinodans. The data set is classed as cell-based, Azorhizobium caulinodans. On the procedure:
Nitrogenase assays (A. caulinodans and P. stutzeri). Cultures were initiated by inoculating a single colony into 0.2 mL of TY medium supplemented with appropriate antibiotics in 96-deepwell plates and grown overnight at 37° C. and 30° C. for A. caulinodans and P. stutzeri, respectively, 900 rpm in a Multitron incubator. 5 μl of overnight cultures was diluted into 500 μl of UMS medium with 30 mM lactate and 10 mM NH4Cl and appropriate antibiotics in 96-deepwell and incubated for 24 h at 37° C. and 30° C. for A. caulinodans and P. stutzeri, respectively, 900 rpm in a Multitron incubator. Cultures were diluted to an OD600 of 0.4 into 2 mL of UMS medium plus 30 mM lactate supplemented with appropriate antibiotics and an inducer (if necessary) in 10 mL glass vials with PTFE-silicone septa screw caps. Headspace in the vials was replaced with 99% argon plus 1% oxygen gas using a vacuum manifold. Acetylene was injected to 10% (vol/vol) into each culture vial to begin the reaction. The acetylene reduction was carried out for 20 h at 30° C. with shaking at 250 rpm, followed by quenching via the addition of 0.5 mL of 4 M NaOH to each vial.
Ethylene quantification. Ethylene production was analyzed by gas chromatography using an Agilent 7890A GC system (Agilent Technologies, Inc., CA USA) equipped with a PAL headspace autosampler and flame ionization detector as follows. An aliquot of 0.5 mL headspace preincubated to 35° C. for 30 s was injected and separated for 4 min on a GS-CarbonPLOT column (0.32 mm×30 m, 3 microns; Agilent) at 60° C. and a He flow rate of 1.8 mL/min. Detection occurred in a FID heated to 300° C. with a gas flow of 35 mL/min H2 and 400 mL/min air. Acetylene and ethylene were detected at 3.0 min and 3.7 min after injection, respectively. Ethylene production was quantified by integrating the 3.7 min peak using Agilent GC/MSD ChemStation Software.
On to `N=C(N)NCCCC(NC(CCC(=O)O)C(=O)O)C(=O)O` (centres unmarked) [nopaline, Nopaline], for which the “dynamic range of nitrogenase activity” value is on record as 412 fold. Turning to `CC(NC(CCCNC(=N)N)C(=O)O)C(=O)O` (centres unmarked) [octopine, Octopine], the “nitrogenase activity higher than the wild-type” value came to 40%. In the case of `O=C([O-])c1ccccc1O.[Na+]` [salicylic acid, Salicylic acid sodium salt], the “dynamic range of nitrogenase activity” value came out at 1000 fold.

The next data set concerns R. sp. IRBG74. Briefly: Genetic part characterization for Rhizobia (promoters, RBSs, terminators, inducible systems; fluorescence reporter, flow cytometry). The data set is classed as cell-based, Rhizobium sp. The settings on record: synthetic RBS strength in R. sp. IRBG74; plasmid pMR-40, IPTG-inducible system, 1 mM IPTG induction. From the text: Construction and characterization genetic parts for Rhizobia. Genetic part libraries were built on a pBBR1-ori plasmid pMR-1 using Gibson assembly (New England Biolabs, Cat # E2611). The fluorescence proteins, GFPmut3b and mRFP1 were used as reporters. The Anderson promoter library (Anderson, J. et al. BglBricks: A flexible standard for biological part assembly. 4, 1 (2010)) on the BioBricks Registry were utilized for the characterization of constitutive promoters (FIGS. 11A-11C). To characterize inducible promoters, a regulator protein is constitutively expressed by the PlacIq promoter, and GFP expression is driven by a cognate inducible promoter from the opposite direction, facilitating replacement of the reporter with gene of interest (e.g., T7 RNAP and nifA) and transfer of the controller unit across different plasmid backbones for diverse microbes. The following combinations of cognate regulators and inducible promoters were characterized. IPTG inducible LacI-A1lacO1, DAPG inducible PhlF-PPhl, aTc inducible TetR-PTet, 3OC6HSL inducible LuxR-PLux, salicylic acid inducible NahR-PSal, and cuminic acid inducible CymR-PCym systems were optimized for R. sp. IRBG74 (FIG. 14). Opine inducible OccR-Pocc, and nopaline inducible NocR-Pnoc systems were optimized for A. caulinodans (FIGS. 20A-20F and Tables 9 and 10). For RBS characterization, an IPTG-inducible GFP expression plasmid pMR-40 was used and GFP was expressed to the highest levels with 1 mM IPTG (FIGS. 12A-12B). RBS library for GFP was designed using the RBS library calculator at the highest-resolution mode, and the 3′ end of the 16S rRNA sequences were adjusted according to the species (3′-ACCTCCTTC-5′ for R. sp. IRBG74). Terminators for T7 RNAP were characterized by placing a terminator between two fluorescence reporters expressed from a single T7 wild-type promoter located upstream of the first fluorescence protein GFP. The expression of the two fluorescence proteins is enabled by the controller strain MR18 encoding the IPTG-inducible T7 RNAP system by 1 mM IPTG (FIGS. 13A-13B). The terminator strength (Ts) was determined by normalizing fluorescence levels of a terminator construct by a reference construct pMR-66 where a 40 bp spacer was placed between the reporters. All genetic parts for Rhizobia were characterized as follows.
A general note: In flow cytometry, cells or beads pass a laser one at a time.
On to “RB5r9 (DNA TAACAATTTCACACATCTAGAGCTAATCATCTCGTACTAATGAGGCAAGTAATG; chemistry not fully specified)”, for which the “Strength (GFP, au)” value is recorded as 1593.5 au. On the same count and under the same terms, as for “RBST-10 (DNA TAACAATTTCACACATCTAGAGCTAATCATCGCGTACTAATGAGGCAAGTAATG; chemistry not fully specified)”, the figure is 1590 au; as for “RBST-11 (DNA TAACAATTTCACACATCTAGAGCTAATCATCGCGTACTCACGAGGCAAGTAATG; chemistry not fully specified)”, 1554 au. Same read-out and setting: under “RBST-12 (DNA TAACAATTTCACACATCTAGAGCTAATCATCGCGTACTAAAAAGGCAAGTAATG; chemistry not fully specified)” stands 1138 au; under “RBST-13 (DNA TAACAATTTCACACATCTAGAGCTAATCTTCGCGTACTAAAAAGGCAAGTAATG; chemistry not fully specified)”, 895.5 au; under “RBST-14 (DNA TAACAATTTCACACATCTAGAGCTAATCTTCGCGTACTAAGAAGGCAAGTAATG; chemistry not fully specified)”, 632.5 au. On the same count and under the same terms, as for “RBST-15 (DNA TAACAATTTCACACATCTAGAGCTAATCATCTCGTACTAAATAGGCAAGTAATG; chemistry not fully specified)”, the figure is 648.5 au; as for “RBST-16 (DNA TAACAATTTCACACATCTAGAGCTAATCATCTCGTACTAATAAGGCAAGTAATG; chemistry not fully specified)”, 532 au. For “RBST-17 (DNA TAACAATTTCACACATCTAGAGCTAATCTTCTCGTACTAAAGAGGCAAGTAATG; chemistry not fully specified)”, the “Strength (GFP, au)” value was 488 au.

On to “RBST-18 (DNA TAACAATTTCACACATCTAGAGCTAATCATCGCGTACTCAATAGGCCAGTAATG; chemistry not fully specified)”, for which the “Strength (GFP, au)” value was 305.5 au. With “RBST-19 (DNA TAACAATTTCACACATCTAGAGCTAATCATCGCGTACTAAGTAGGCAAGTAATG; chemistry not fully specified)”, the “Strength (GFP, au)” value is listed as 242 au. With “RBST-20 (DNA TAACAATTTCACACATCTAGAGCTAATCATCTCGTACTAACGAGGCAAGTAATG; chemistry not fully specified)”, the “Strength (GFP, au)” value came to 248 au. Still for that read-out and setting: as for “RBST-21 (DNA TAACAATTTCACACATCTAGAGCTAATCATCGCGTACTCAGCAGGCAAGTAATG; chemistry not fully specified)”, the figure is 183 au; as for “RBST-22 (DNA TAACAATTTCACACATCTAGAGCTAATCTTCGCGTACTAAGTAGGCAAGTAATG; chemistry not fully specified)”, 130 au.

“RBST-23 (DNA TAACAATTTCACACATCTAGAGCTAATCTTCGCGTACTAATTAGGCAAGTAATG; chemistry not fully specified)”: the “Strength (GFP, au)” value amounted to 84.4 au.

On to “RBST-24 (DNA TAACAATTTCACACATCTAGAGCTAATCTTCTCGTACTAACAAGGCAAGTAATG; chemistry not fully specified)”, for which the “Strength (GFP, au)” value was 75.15 au. Still for that read-out and setting: as for “RBST-25 (DNA TAACAATTTCACACATCTAGAGCTAATCATCTCGTACTCAATAGGCAAGTAATG; chemistry not fully specified)”, the figure is 45.45 au; as for “RBST-26 (DNA TAACAATTTCACACATCTAGAGCTAATCATCTCGTACTAAGCACGCAAGTAATG; chemistry not fully specified)”, 36 au; as for “RBST-27 (DNA TAACAATTTCACACATCTAGAGCTAATCATCGCGTACTAACTACGCAAGTAATG; chemistry not fully specified)”, 12.2 au.

“RBST-28 (DNA TAACAATTTCACACATCTAGAGCTAATCTTCGCGTACTAAGAACGCAAGTAATG; chemistry not fully specified)”: the “Strength (GFP, au)” value was 13 au. For the molecule “RBST-29 (DNA TAACAATTTCACACATCTAGAGCTAATCTTCGCGTACTAAAAACGCAAGTAATG; chemistry not fully specified)”, the “Strength (GFP, au)” value was determined as 4.6 au. For “RBST-30 (DNA TAACAATTTCACACATCTAGAGCTAATCTTCGCGTACTAACAACGCAAGTAATG; chemistry not fully specified)”, the “Strength (GFP, au)” value was 2.95 au. On to “RBST-31 (DNA TAACAATTTCACACATCTAGAGCTAATCTTCTCGTACTCATGACGCAAGTAATG; chemistry not fully specified)”, for which the “Strength (GFP, au)” value is 1.45 au.
